In ChEMBL document CHEMBL5344448, “Amide Alkaloids as Privileged Sources of Senomodulators for Therapeutic Purposes in Age-Related Diseases” (J Nat Prod, 2024):

Columns and labels:
WI-38 = assay: Induction of senescence in human WI-38 cells; assay type: functional, cell-based
[1] = Inhibition of rat liver microsome ACAT; assay type: microsomes

| SMILES | IC50 (WI-38) [µM] | IC50 [1] [µM] |
| --- | --- | --- |
| O=C(/C=C/C=C/CC/C=C/c1ccc2c(c1)OCO2)N1CCCCC1 [DEHYDROPIPERNOLINE] | 2.1 | 90 |
| CC(C)CNC(=O)/C=C/C=C/CCCCCC/C=C/c1ccc2c(c1)OCO2 [GUINEENSINE] | 8.9 | 3 |
| CCCCC/C=C/C=C/C(=O)NCC(C)C [PELLITORIN] | 0.67 | – |
| CC(C)CNC(=O)/C=C/C=C/CCCC/C=C/c1ccc2c(c1)OCO2 [RETROFRACTAMIDE B] | 2 | – |
| COc1cc(/C=C/C(=O)N2CCC=CC2=O)cc(OC)c1OC [PIPLARTINE] | 8 | – |
| O=C(/C=C/C=C/c1ccc2c(c1)OCO2)N1CCCCC1 [PIPERINE] | 8.8 | – |
